# Measured values: the supplement of paper PMC13207355
# Key:
# Conditions in all cases: exposure time: 72 h
# E13 [1] = patient-derived glioblastoma stem cells of classical subtype; assay: surviving fraction (nuclei count normalised to DMSO); higher = more cells surviving (less toxic)
# E28 [2] = patient-derived glioblastoma stem cells of classical subtype; assay: as above
# E31 [3] = patient-derived glioblastoma stem cells of proneural subtype; assay: as above
# E34 [4] = patient-derived glioblastoma stem cells of proneural subtype; assay: as above
# E21 [5] = patient-derived glioblastoma stem cells of mesenchymal subtype; assay: as above
# E57 [6] = patient-derived glioblastoma stem cells of mesenchymal subtype; assay: as above
# FT3469 [7] = normal neural stem cell line; assay: as above
# E13 [8] = assay: phenotypic distance (Euclidean, principal components) from DMSO controls (arbitrary units); higher = stronger morphological change
# E28 [9] = assay: as above
# E31 [10] = assay: as above
# E34 [11] = assay: as above
# E21 [12] = assay: as above
# E57 [13] = assay: as above
# FT3469 [14] = assay: as above
# 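For phenotypic distance (Euclidean, principal components) from DMSO controls in this document: cell Painting imaging in 384-well plates, CellProfiler features reduced to at least 20 principal components, Euclidean distance versus same-plate DMSO vehicle wells (0.1% v/v), median over six images per well.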
# 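For surviving fraction (nuclei count normalised to DMSO) in this document: nuclei counted by high-content imaging of Hoechst-stained cells in laminin-coated 384-well plates, relative to 0.1% DMSO vehicle wells, with staurosporine as cell-death control.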
smiles,measurement,setting,value
CC(=O)[C@]1(O)Cc2c(O)c3c(c(O)c2[C@@H](O[C@H]2C[C@H](N)[C@H](O)[C@H](C)O2)C1)C(=O)c1ccccc1C3=O [Idarubicin],surviving fraction,E13 [1]; 4.1 nM,0.402
same,surviving fraction,E13 [1]; 12.3 nM,0.404
same,surviving fraction,E13 [1]; 37 nM,0.255
same,surviving fraction,E13 [1]; 111.1 nM,0.25
same,surviving fraction,E13 [1]; 333.3 nM,0.179
same,surviving fraction,E13 [1]; 1000 nM,0.0911
same,surviving fraction,E13 [1]; 3000 nM,0.0243
same,surviving fraction,E28 [2]; 4.1 nM,0.386
same,surviving fraction,E28 [2]; 12.3 nM,0.41
same,surviving fraction,E28 [2]; 37 nM,0.313
same,surviving fraction,E28 [2]; 111.1 nM,0.304
same,surviving fraction,E28 [2]; 333.3 nM,0.271
same,surviving fraction,E28 [2]; 1000 nM,0.18
same,surviving fraction,E28 [2]; 3000 nM,0.241
same,surviving fraction,E31 [3]; 4.1 nM,0.259
same,surviving fraction,E31 [3]; 12.3 nM,0.226
same,surviving fraction,E31 [3]; 37 nM,0.179
same,surviving fraction,E31 [3]; 111.1 nM,0.149
same,surviving fraction,E31 [3]; 333.3 nM,0.139
same,surviving fraction,E31 [3]; 1000 nM,0.114
same,surviving fraction,E31 [3]; 3000 nM,0.072
same,surviving fraction,E34 [4]; 4.1 nM,0.611
same,surviving fraction,E34 [4]; 12.3 nM,0.511
same,surviving fraction,E34 [4]; 37 nM,0.54
same,surviving fraction,E34 [4]; 111.1 nM,0.538
same,surviving fraction,E34 [4]; 333.3 nM,0.479
same,surviving fraction,E34 [4]; 1000 nM,0.448
same,surviving fraction,E34 [4]; 3000 nM,0.15
same,surviving fraction,E21 [5]; 4.1 nM,0.371
same,surviving fraction,E21 [5]; 12.3 nM,0.371
same,surviving fraction,E21 [5]; 37 nM,0.165
same,surviving fraction,E21 [5]; 111.1 nM,0.193
same,surviving fraction,E21 [5]; 333.3 nM,0.167
same,surviving fraction,E21 [5]; 1000 nM,0.164
same,surviving fraction,E21 [5]; 3000 nM,0.0457
same,surviving fraction,E57 [6]; 4.1 nM,0.197
same,surviving fraction,E57 [6]; 12.3 nM,0.205
same,surviving fraction,E57 [6]; 37 nM,0.146
same,surviving fraction,E57 [6]; 111.1 nM,0.166
same,surviving fraction,E57 [6]; 333.3 nM,0.14
same,surviving fraction,E57 [6]; 1000 nM,0.124
same,surviving fraction,E57 [6]; 3000 nM,0.0591
same,surviving fraction,FT3469 [7]; 4.1 nM,0.654
same,surviving fraction,FT3469 [7]; 12.3 nM,0.716
same,surviving fraction,FT3469 [7]; 37 nM,0.663
same,surviving fraction,FT3469 [7]; 111.1 nM,0.592
same,surviving fraction,FT3469 [7]; 333.3 nM,0.495
same,surviving fraction,FT3469 [7]; 1000 nM,0.439
same,surviving fraction,FT3469 [7]; 3000 nM,0.0825
same,phenotypic distance,E13 [8]; 4.1 nM,7.02
same,phenotypic distance,E13 [8]; 12.3 nM,6.41
same,phenotypic distance,E13 [8]; 37 nM,6.27
same,phenotypic distance,E13 [8]; 111.1 nM,5.38
same,phenotypic distance,E13 [8]; 333.3 nM,6.31
same,phenotypic distance,E13 [8]; 1000 nM,6.11
same,phenotypic distance,E13 [8]; 3000 nM,6.59
same,phenotypic distance,E28 [9]; 4.1 nM,2.71
same,phenotypic distance,E28 [9]; 12.3 nM,3.28
same,phenotypic distance,E28 [9]; 37 nM,3.42
same,phenotypic distance,E28 [9]; 111.1 nM,2.57
same,phenotypic distance,E28 [9]; 333.3 nM,3.02
same,phenotypic distance,E28 [9]; 1000 nM,4.74
same,phenotypic distance,E28 [9]; 3000 nM,5.14
same,phenotypic distance,E31 [10]; 4.1 nM,2.69
same,phenotypic distance,E31 [10]; 12.3 nM,2.97
same,phenotypic distance,E31 [10]; 37 nM,3.12
same,phenotypic distance,E31 [10]; 111.1 nM,4.59
same,phenotypic distance,E31 [10]; 333.3 nM,4.15
same,phenotypic distance,E31 [10]; 1000 nM,5.28
same,phenotypic distance,E31 [10]; 3000 nM,4.78
same,phenotypic distance,E34 [11]; 4.1 nM,4.82
same,phenotypic distance,E34 [11]; 12.3 nM,4.66
same,phenotypic distance,E34 [11]; 37 nM,2.72
same,phenotypic distance,E34 [11]; 111.1 nM,2.83
same,phenotypic distance,E34 [11]; 333.3 nM,2.83
same,phenotypic distance,E34 [11]; 1000 nM,5.05
same,phenotypic distance,E34 [11]; 3000 nM,4
same,phenotypic distance,E21 [12]; 4.1 nM,7.83
same,phenotypic distance,E21 [12]; 12.3 nM,6.13
same,phenotypic distance,E21 [12]; 37 nM,5.05
same,phenotypic distance,E21 [12]; 111.1 nM,5.05
same,phenotypic distance,E21 [12]; 333.3 nM,5.58
same,phenotypic distance,E21 [12]; 1000 nM,5.16
same,phenotypic distance,E21 [12]; 3000 nM,8.48
same,phenotypic distance,E57 [13]; 4.1 nM,11.4
same,phenotypic distance,E57 [13]; 12.3 nM,9.36
same,phenotypic distance,E57 [13]; 37 nM,6.52
same,phenotypic distance,E57 [13]; 111.1 nM,6.05
same,phenotypic distance,E57 [13]; 333.3 nM,5.69
same,phenotypic distance,E57 [13]; 1000 nM,6.02
same,phenotypic distance,E57 [13]; 3000 nM,6.32
same,phenotypic distance,FT3469 [14]; 4.1 nM,1.93
same,phenotypic distance,FT3469 [14]; 12.3 nM,1.84
same,phenotypic distance,FT3469 [14]; 37 nM,1.77
same,phenotypic distance,FT3469 [14]; 111.1 nM,1.39
same,phenotypic distance,FT3469 [14]; 333.3 nM,2.3
same,phenotypic distance,FT3469 [14]; 1000 nM,3.94
same,phenotypic distance,FT3469 [14]; 3000 nM,5.56
O=C1c2c(O)ccc(O)c2C(=O)c2c(NCCNCCO)ccc(NCCNCCO)c21 [Mitoxantrone],surviving fraction,E13 [1]; 4.1 nM,0.526
same,surviving fraction,E13 [1]; 12.3 nM,0.451
same,surviving fraction,E13 [1]; 37 nM,0.422
same,surviving fraction,E13 [1]; 111.1 nM,0.338
same,surviving fraction,E13 [1]; 333.3 nM,0.279
same,surviving fraction,E13 [1]; 1000 nM,0.23
same,surviving fraction,E13 [1]; 3000 nM,0.219
same,surviving fraction,E28 [2]; 4.1 nM,0.476
same,surviving fraction,E28 [2]; 12.3 nM,0.359
same,surviving fraction,E28 [2]; 37 nM,0.358
same,surviving fraction,E28 [2]; 111.1 nM,0.262
same,surviving fraction,E28 [2]; 333.3 nM,0.313
same,surviving fraction,E28 [2]; 1000 nM,0.286
same,surviving fraction,E28 [2]; 3000 nM,0.264
same,surviving fraction,E31 [3]; 4.1 nM,0.243
same,surviving fraction,E31 [3]; 12.3 nM,0.219
same,surviving fraction,E31 [3]; 37 nM,0.311
same,surviving fraction,E31 [3]; 111.1 nM,0.216
same,surviving fraction,E31 [3]; 333.3 nM,0.218
same,surviving fraction,E31 [3]; 1000 nM,0.127
same,surviving fraction,E31 [3]; 3000 nM,0.142
same,surviving fraction,E34 [4]; 4.1 nM,0.578
same,surviving fraction,E34 [4]; 12.3 nM,0.494
same,surviving fraction,E34 [4]; 37 nM,0.578
same,surviving fraction,E34 [4]; 111.1 nM,0.615
same,surviving fraction,E34 [4]; 333.3 nM,0.547
same,surviving fraction,E34 [4]; 1000 nM,0.564
same,surviving fraction,E34 [4]; 3000 nM,0.56
same,surviving fraction,E21 [5]; 4.1 nM,0.689
same,surviving fraction,E21 [5]; 12.3 nM,0.608
same,surviving fraction,E21 [5]; 37 nM,0.448
same,surviving fraction,E21 [5]; 111.1 nM,0.229
same,surviving fraction,E21 [5]; 333.3 nM,0.207
same,surviving fraction,E21 [5]; 1000 nM,0.209
same,surviving fraction,E21 [5]; 3000 nM,0.189
same,surviving fraction,E57 [6]; 4.1 nM,0.245
same,surviving fraction,E57 [6]; 12.3 nM,0.2
same,surviving fraction,E57 [6]; 37 nM,0.174
same,surviving fraction,E57 [6]; 111.1 nM,0.165
same,surviving fraction,E57 [6]; 333.3 nM,0.161
same,surviving fraction,E57 [6]; 1000 nM,0.159
same,surviving fraction,E57 [6]; 3000 nM,0.17
same,surviving fraction,FT3469 [7]; 4.1 nM,0.595
same,surviving fraction,FT3469 [7]; 12.3 nM,0.645
same,surviving fraction,FT3469 [7]; 37 nM,0.657
same,surviving fraction,FT3469 [7]; 111.1 nM,0.604
same,surviving fraction,FT3469 [7]; 333.3 nM,0.639
same,surviving fraction,FT3469 [7]; 1000 nM,0.604
same,surviving fraction,FT3469 [7]; 3000 nM,0.362
same,phenotypic distance,E13 [8]; 4.1 nM,4.74
same,phenotypic distance,E13 [8]; 12.3 nM,5.62
same,phenotypic distance,E13 [8]; 37 nM,6.07
same,phenotypic distance,E13 [8]; 111.1 nM,6.02
same,phenotypic distance,E13 [8]; 333.3 nM,6.18
same,phenotypic distance,E13 [8]; 1000 nM,6.49
same,phenotypic distance,E13 [8]; 3000 nM,6.08
same,phenotypic distance,E28 [9]; 4.1 nM,3.3
same,phenotypic distance,E28 [9]; 12.3 nM,3.24
same,phenotypic distance,E28 [9]; 37 nM,3.23
same,phenotypic distance,E28 [9]; 111.1 nM,3.7
same,phenotypic distance,E28 [9]; 333.3 nM,3.72
same,phenotypic distance,E28 [9]; 1000 nM,3.17
same,phenotypic distance,E28 [9]; 3000 nM,2.86
same,phenotypic distance,E31 [10]; 4.1 nM,2.71
same,phenotypic distance,E31 [10]; 12.3 nM,3.14
same,phenotypic distance,E31 [10]; 37 nM,2.43
same,phenotypic distance,E31 [10]; 111.1 nM,2.42
same,phenotypic distance,E31 [10]; 333.3 nM,2.72
same,phenotypic distance,E31 [10]; 1000 nM,4.39
same,phenotypic distance,E31 [10]; 3000 nM,4.07
same,phenotypic distance,E34 [11]; 4.1 nM,4.38
same,phenotypic distance,E34 [11]; 12.3 nM,4.62
same,phenotypic distance,E34 [11]; 37 nM,4.33
same,phenotypic distance,E34 [11]; 111.1 nM,2.84
same,phenotypic distance,E34 [11]; 333.3 nM,2.54
same,phenotypic distance,E34 [11]; 1000 nM,1.99
same,phenotypic distance,E34 [11]; 3000 nM,2.83
same,phenotypic distance,E21 [12]; 4.1 nM,2.94
same,phenotypic distance,E21 [12]; 12.3 nM,4.27
same,phenotypic distance,E21 [12]; 37 nM,6.11
same,phenotypic distance,E21 [12]; 111.1 nM,6.48
same,phenotypic distance,E21 [12]; 333.3 nM,6.79
same,phenotypic distance,E21 [12]; 1000 nM,6.1
same,phenotypic distance,E21 [12]; 3000 nM,5.74
same,phenotypic distance,E57 [13]; 4.1 nM,8.68
same,phenotypic distance,E57 [13]; 12.3 nM,9.84
same,phenotypic distance,E57 [13]; 37 nM,8.24
same,phenotypic distance,E57 [13]; 111.1 nM,6.95
same,phenotypic distance,E57 [13]; 333.3 nM,7.05
same,phenotypic distance,E57 [13]; 1000 nM,7.26
same,phenotypic distance,E57 [13]; 3000 nM,6.66
same,phenotypic distance,FT3469 [14]; 4.1 nM,1.61
same,phenotypic distance,FT3469 [14]; 12.3 nM,1.65
same,phenotypic distance,FT3469 [14]; 37 nM,1.7
same,phenotypic distance,FT3469 [14]; 111.1 nM,1.36
same,phenotypic distance,FT3469 [14]; 333.3 nM,1.3
same,phenotypic distance,FT3469 [14]; 1000 nM,2.01
same,phenotypic distance,FT3469 [14]; 3000 nM,3.46
